The results in this text go back to PMC10004634 (PLOS ONE, 2023).

The target of experiment [1] is PKNB(M.tuberculosis) (Mycobacterium tuberculosis, UniProt P9WI81). The experiment is described as follows: biochemical. The settings on record: read-out: Percent control / Ibrutinib.
The subject of experiment [2] is BT system (B cells, peripheral blood mononuclear cells). Put plainly: BioMAP Diversity PLUS profiling, BT system. Format: cell-based, human. The settings on record: 120, 370, 1100, 3300 nM. The method, then:
In brief, cultures with one or more primary cell types from healthy human donors were treated with sets of stimulators specific to the cell subsets, and the optimized biomarker readouts for each system were measured by ELISA and other techniques, as listed in S1 Table. The assays included positive and negative controls as well as vehicle control. Results are presented as the log-transformed ratio of biomarker readouts for tirabrutinib-treated samples to vehicle controls.

Experiment [3] has as its system TMD8 cells. Put plainly: Western blot of BTK downstream signaling (p-PLCγ2, p-ERK1/2, p-AKT, p-IκBα). Format: cell-based, human. The method, then: (§1) After culturing, cells were harvested and lysed with cell lysis buffer (Cell Signaling Technology, Inc.) containing 1 mM AEBSF (Calbiochem, #101500). As a positive control of BTK autophosphorylation for western blot analysis, TMD8 cells were treated with hydrogen peroxide (H2O2; final concentration: 6 mM) for 10 min, harvested as a control sample, and then lysed with the cell lysis buffer.
(§2) Each mixture of cells and cell lysis buffer was incubated on ice for 5 min, then centrifuged at 13400 × g and 4°C for 10 min. Total lysates were loaded on 4%–12% SDS-PAGE (Bio-Rad) and transferred to a polyvinylidene difluoride (PVDF) membrane (Immobilon-P Transfer Membrane, Millipore Corporation). The blot was incubated in Tris-buffered saline with Tween 20 (TBS-T, Cell Signaling Technology, Inc.) containing 2 w/v% ECL Advance Blocking Agent (GE Healthcare Life Sciences, b) for 1 h at room temperature. The blocked PVDF membranes were immersed in TBS-T and washed three times with shaking at room temperature for 10 min. The membrane was incubated with primary antibody in TBS-T containing 2 w/v% ECL Advance Blocking Agent with gentle agitation overnight at 5°C in a cold storage room or for 1 h at room temperature. Rabbit monoclonal anti- phosphorylated BTK (Tyr-223) antibody (p-BTK; Novus Biologicals, #NB100-79907), rabbit monoclonal BTK antibody (Cell Signaling Technology, Inc., #3533), rabbit polyclonal phosphorylated AKT (Ser-473) antibody (p-AKT; Cell Signaling Technology, Inc., #9271), rabbit monoclonal AKT (pan) (C67E7) antibody (Cell Signaling Technology, Inc., #4691), rabbit polyclonal phosphorylated p44/42 MAPK (ERK1/2) (Thr-202/Tyr-204) antibody (p-ERK1/2; Cell Signaling Technology, Inc., #9101), rabbit monoclonal p44/42 MAPK (ERK1/2) (137F5) antibody (Cell Signaling Technology, Inc., #4695), rabbit monoclonal phosphorylated PLCγ2 (Tyr-759) (E9E9Y) antibody (p-PLCγ2; Cell Signaling Technology, Inc., #50535), rabbit monoclonal PLCγ2 (E5U4T) antibody (Cell Signaling Technology, Inc., #55512), mouse monoclonal phosphorylated IκBα (Ser-32/36) (5A5) antibody (p-IκBα; Cell Signaling Technology, Inc., #9246), rabbit monoclonal IκBα (44D4) antibody (Cell Signaling Technology, Inc., #4812), rabbit polyclonal phosphorylated PKCβ (phospho-Thr-641) antibody (p-PKCβ; Signalway Antibody LLC, #11172), rabbit monoclonal IRF4 (D9P5H) antibody (Cell Signaling Technology, Inc., #15106), rabbit monoclonal BCL6 (D65C10) antibody (Cell Signaling Technology, Inc., #5650), rabbit monoclonal c-MYC (D84C12) antibody (Cell Signaling Technology, Inc., #5605), and rabbit monoclonal GAPDH (14C10) antibody (Cell Signaling Technology, Inc., #2118) were used. The PVDF membranes were immersed in TBS-T and washed three times with shaking at room temperature for 10 min, then incubated with secondary antibody with shaking for 1 h at room temperature. The secondary antibody used was anti-rabbit-IgG horseradish peroxidase (HRP)-linked antibody (Cell Signaling Technology, #7074) or goat anti-rabbit immunoglobulins/HRP (Dako, P0448). The PVDF membranes were washed three times with shaking at room temperature for 10 min and were treated with ECL^TM Advance Western Blotting Detection Kit (GE Healthcare Life Sciences, #RPN2135) for chemiluminescent detection according to the manufacturer’s instruction. Lumino-image analyzer (LAS-1000 Plus system, Fuji Photo Film Co., Ltd.) and Image Reader LAS-1000 Lite version 1.3 (Fuji Photo Film Co., Ltd.) were used to visualize bands. The densitometry analysis described the ratio of phosphorylated to total BTK protein. […] 5.04 (GraphPad Software, Inc.).
(Immunoblotting shows a protein as a band on a membrane.)

For experiment [4], the system named is U-2932 cells. The experiment is described as above. Format: cell-based, human. As for the experimental part:
as §1, §2

For experiment [5], the target named is T1, PFPK5(P.falciparum) (Plasmodium falciparum, UniProt P61075).
T1 construct: gene MAL13P1.279
Put plainly: biochemical. The settings on record: read-out: Percent control / Zanubrutinib.

Sequence of PKNB(M.tuberculosis) (P9WI81 whole entry, looked up): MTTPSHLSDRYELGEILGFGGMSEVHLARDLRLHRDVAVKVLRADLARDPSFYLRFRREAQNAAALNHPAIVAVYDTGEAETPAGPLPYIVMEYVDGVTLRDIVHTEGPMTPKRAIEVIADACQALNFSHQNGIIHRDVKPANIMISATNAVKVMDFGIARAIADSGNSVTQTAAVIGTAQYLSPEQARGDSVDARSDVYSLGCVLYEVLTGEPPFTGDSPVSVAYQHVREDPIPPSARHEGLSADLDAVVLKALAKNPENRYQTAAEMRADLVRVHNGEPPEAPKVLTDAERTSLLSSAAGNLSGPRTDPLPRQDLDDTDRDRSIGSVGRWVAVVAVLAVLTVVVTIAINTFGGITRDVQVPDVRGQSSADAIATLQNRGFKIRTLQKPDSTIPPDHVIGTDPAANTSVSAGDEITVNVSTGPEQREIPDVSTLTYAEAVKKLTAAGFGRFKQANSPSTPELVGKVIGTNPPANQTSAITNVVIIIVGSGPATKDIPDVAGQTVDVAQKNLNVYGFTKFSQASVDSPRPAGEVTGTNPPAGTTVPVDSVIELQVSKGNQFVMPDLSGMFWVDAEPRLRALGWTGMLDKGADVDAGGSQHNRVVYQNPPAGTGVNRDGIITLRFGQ
T1 sequence (P61075 whole entry): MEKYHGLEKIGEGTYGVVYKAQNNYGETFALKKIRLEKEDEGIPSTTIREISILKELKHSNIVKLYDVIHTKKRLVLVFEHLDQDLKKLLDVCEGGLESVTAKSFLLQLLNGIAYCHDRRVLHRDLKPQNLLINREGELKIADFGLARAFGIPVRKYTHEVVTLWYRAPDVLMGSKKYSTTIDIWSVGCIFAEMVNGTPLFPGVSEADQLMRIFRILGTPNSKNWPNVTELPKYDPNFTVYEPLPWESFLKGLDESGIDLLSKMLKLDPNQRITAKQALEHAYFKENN

On to `C=CC(=O)N1CCC[C@@H](n2nc(-c3ccc(Oc4ccccc4)cc3)c3c(N)ncnc32)C1` [Ibrutinib], for which, in experiment [1], the remaining activity at 0.3 µM amounted to 93%.
`CC#CC(=O)N1CC[C@@H](n2c(=O)n(-c3ccc(Oc4ccccc4)cc3)c3c(N)ncnc32)C1` [Tirabrutinib]: the “effect on the BT system (B-cell growth, production of IgG, IL-6, IL-17A, TNFα)” value in experiment [2] is given as “concentration-dependent inhibitory effect”. Further, the “p-AKT at Ser-473” value in experiment [3] (1 μM) is recorded as “inhibition”. For the same molecule, the “p-IκBα at S32/36” value is reported as “inhibited” in experiment [3] (1 μM, 4 h) and “inhibited” in experiment [4] (1 μM, 4 h). The p-ERK entry was “inhibited” in experiment [3] (1 h, 10-300 nM); “not clear” in experiment [4] (1 h, 10-300 nM); “significant inhibition” in experiment [4] (4 h, 10-300 nM). Besides, the “phosphorylation of PLCγ2 at Tyr-759” value was “inhibited” in experiment [3] (1 h, 10-300 nM) and “inhibited” in experiment [4] (1 h, 10-300 nM). In experiment [4] (1 μM), the “AKT signaling (p-AKT Ser-473)” value is given as “did not indicate inhibition”.
Take `C=CC(=O)N1CCC([C@@H]2CCNc3c(C(N)=O)c(-c4ccc(Oc5ccccc5)cc4)nn32)CC1` [Zanubrutinib]: the remaining activity at 0.3 µM in experiment [5] came to 100%.
